Key:
[1] = test system: LS-174T; experiment: Cytotoxicity assay, LS-174T (colon); conditions: Homo sapiens, LS174T, read-out: Cytotoxicity IC50, LS-174T
Method: (§1) The growth inhibitory effects of conjugates 5 and 8 were examined through a series of cytoxcicity assays against a variety of cancer cell types of human origin. The cell types tested were PC-3 (prostate), LS-174T (colon), MIA PaCa-2 (pancreatic) and BxPC-3 (pancreatic).
(§2) The surviving cell populations were counted on the fourth day after treatment (96 hour post-treatment). The viable cells were then counted and the numbers of treated cells were normalized against the untreated controls (taken as 100%).
(§3) Tumor cells (as indicated) were maintained as monolayers in 75-cm^2 tissue culture flasks using their respective cell culture medium containing 10% fetal bovine serum and 2 mM L-glutamine. Incubation was at 37° C. under a humidified 5% CO2: air atmosphere (standard conditions) for five days. The cells were harvested when in mid-log growth and their concentration was determined using a particle counter (Beckman Coulter, Inc, Fullerton, Calif.). An aliquot of the cell suspension was diluted in culture medium for delivery to a 24-well tissue culture plate at a range of 10,000 to 30,000 per 1 mL per well. […] Following a 96-h incubation under standard conditions from the initial treatment, the viable cells were counted and the numbers were normalized to the percent of untreated controls. […]

[2] = cited from earlier work
[3] = test system: MIA PaCa-2; experiment: Cytotoxicity assay, MIA PaCa-2 (pancreatic); conditions: Homo sapiens, MIA PaCa-2, read-out: Cytotoxicity IC50, MIA PaCa-2
Method: as §1, §2, §3

[4] = test system: PC-3; experiment: Cytotoxicity assay, PC-3 (prostate); conditions: Homo sapiens, PC-3, read-out: Cytotoxicity IC50, PC-3
Method: as §1, §2, §3

[5] = test system: BxPC-3; experiment: Cytotoxicity assay, BxPC-3 (pancreatic); conditions: Homo sapiens, BXPC-3, read-out: Cytotoxicity IC50, Bx-PC3
Method: as §1, §2, §3

SMILES: COc1cc(/C=C/C(=O)CC(=O)/C=C/c2ccc(O)c(OC)c2)ccc1O [Curcumin, (E,E)-1,7-bis(4-hydroxy-3-methoxyphenyl)-1,6-heptadiene-3,5-dione]
- IC50 [1]: 6.5 ± 1.4 µM
- solubility in water and other aqueous solutions [2]: insoluble
- IC50 [3]: 9 ± 2.5 µM
- IC50 [4]: 12 ± 1.35 µM
- IC50 [5]: 2 ± 0.3 µM
